The IC50 is the concentration that gives 50% inhibition.

Bounds are passed on as bounds.

The target in the first assay is T1, DNA repair protein RAD51 homolog 1 (Homo sapiens, UniProt Q06609).
T1 sequence (Q06609 whole entry): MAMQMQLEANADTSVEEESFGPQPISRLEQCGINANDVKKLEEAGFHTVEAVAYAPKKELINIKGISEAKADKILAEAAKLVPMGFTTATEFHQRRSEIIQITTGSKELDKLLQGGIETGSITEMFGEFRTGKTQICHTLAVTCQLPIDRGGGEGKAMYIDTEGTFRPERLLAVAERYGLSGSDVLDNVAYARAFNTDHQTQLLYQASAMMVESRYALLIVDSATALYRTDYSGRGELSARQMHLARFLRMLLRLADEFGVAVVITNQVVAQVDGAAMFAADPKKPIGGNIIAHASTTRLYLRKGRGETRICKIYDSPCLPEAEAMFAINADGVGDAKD
As to the kind of experiment: RAD51 recombination inhibitor potency, dose response, biochemical, homologous recombination, fluorescence (AID 1435).
Settings: not given
Turning to `CCCCCOCC1CC(CC(C)N=Nc2nc(-c3ccccc3)cs2)C(=O)O1` (stereo not given) [5-(amoxymethyl)-3-[2-[(4-phenylthiazol-2-yl)hydrazono]propyl]tetrahydrofuran-2-one], the 50% inhibitory concentration (IC50) was greater than 85 µM. The same measure, in the same setting: as for `Cc1cc(C(=O)Nc2cccnc2)cs1` [5-methyl-N-pyridin-3-yl-thiophene-3-carboxamide], the figure is greater than 85 µM; as for `Cc1cc2nc3c(nc2cc1C)C1(C(=O)O)CCC3(C)C1(C)C` (stereo not given) [6,7,12,15,15-pentamethyl-3,10-diazatetracyclo[10.2.1.0~2,11~.0~4,9~]pentadeca-2(11),3,5,7,9-pentaene-1-carboxylic acid], 37.1 µM. Same read-out and setting: as for `FC(F)(F)c1nnc2ccc(N3CCCC3)nn12` [6-(1-pyrrolidinyl)-3-(trifluoromethyl)[1,2,4]triazolo[4,3-b]pyridazine], the figure is greater than 85 µM. Same read-out and setting: as for `O=C(c1ccc2ccccc2n1)N1CCN(c2ccccc2O)CC1` [Glucosamine derivative, 2], the figure is greater than 85 µM; as for `COc1cccc2c1C(=O)c1c(O)c3c(c(O)c1C2=O)C[C@@](O)(C(=O)CO)C[C@@H]3O[C@H]1C[C@H](N)[C@H](O)[C@H](C)O1` [MLS000028393], greater than 85 µM. Regarding `CN1CCN(C2=C(Cl)C(=O)N(Cc3ccccc3)C2=O)CC1` [MLS000030834], the IC50 was greater than 85 µM. On the same count and under the same terms, as for `O=c1[nH]c(N2CCN(Cc3ccc4c(c3)OCO4)CC2)nc2c1CCC2` [MLS000100276], the figure is greater than 85 µM; as for `O=C(O)/C=C/c1cn(Cc2ccccc2)nc1-c1ccccc1` [MLS000567315], greater than 85 µM.

As to `O=C(Nc1ccc(-c2nc3ccccc3o2)cc1)c1ccc2c(c1)OCO2` [N-[4-(1,3-benzoxazol-2-yl)phenyl]-1,3-benzodioxole-5-carboxamide], the IC50 was greater than 85 µM. In the case of `CC1CCCC(C)N1S(=O)(=O)c1ccc(NC(=O)CCn2cnc3ccccc3c2=O)cc1` (stereo not given) [N-[4-(2,6-dimethylpiperidin-1-yl)sulfonylphenyl]-3-(4-oxoquinazolin-3-yl)propanamide], the IC50 is greater than 85 µM.

Take `O=S(=O)(Nc1ccc(O)c(CN2CCCCC2)c1)c1ccccc1` [N-[4-oxidanyl-3-(piperidin-1-ylmethyl)phenyl]benzenesulfonamide]: the IC50 was greater than 85 µM. Turning to `CC(C)CC(=O)/N=C(\N)Nc1nc2ccccc2s1` [N-[(E)-N''''-(1,3-benzothiazol-2-yl)carbamimidoyl]-3-methylbutanamide], the 50% inhibitory concentration (IC50) was greater than 85 µM. Turning to `Cc1ccc(C(=O)COc2cccc(NC(=O)c3ccco3)c2)cc1` [N-{3-[2-(4-methylphenyl)-2-oxoethoxy]phenyl}-2-furamide], the IC50 is greater than 85 µM. On the same count and under the same terms, as for `CCCOc1ccccc1N=C(NC(=O)COc1ccc(OC)cc1)Nc1nc(C)cc(C)n1` [N-{[(4,6-dimethyl-2-pyrimidinyl)amino][(2-propoxyphenyl)amino]methylene}-2-(4-methoxyphenoxy)acetamide], the figure is greater than 85 µM.

In the case of `COc1cc(C(=O)O)c2c(c1C)OC(=O)c1c(C)cc(O)c(C=O)c1O2` [NSC-92186], the half-inhibitory concentration (IC50) was determined as 5.45 µM.

Consider `COCCn1c(=NC(=O)CSC(C)=O)sc2cc(F)ccc21` [S-[2-[[6-fluoranyl-3-(2-methoxyethyl)-1,3-benzothiazol-2-ylidene]amino]-2-oxidanylidene-ethyl] ethanethioate], for which the half-inhibitory concentration (IC50) was greater than 85 µM.

With `Cc1onc(-c2c(Cl)cccc2Cl)c1C(=O)Nn1cnnc1` [SMR000009301], the IC50 was greater than 85 µM.

With `CCC1(C)Nc2ccccc2C(=O)N1O` (stereo not given) [SMR000024795], the half-inhibitory concentration (IC50) is greater than 85 µM.

With `CN1CCN(C(=O)c2ccc(S(=O)(=O)c3ccc(Br)cc3)cc2)CC1` [SMR000041005], the IC50 is greater than 85 µM. Still for that read-out and setting: as for `Cc1cc(C)n(-c2nc3c(c(=O)[nH]c(=O)n3C)n2Cc2ccc(F)cc2)n1` [SMR000046638], the figure is greater than 85 µM. Same read-out and setting: to `CCOC(=O)C1CCN(CC(=O)Nc2c(C(=O)OC)n(C)c3cccc(C)c23)CC1` [SMR000046840] belongs greater than 85 µM; to `CCC(CC)c1nnc(NS(=O)(=O)Cc2ccccc2)s1` [SMR000074911], greater than 85 µM; to `OC(COc1ccc2c(c1)CCC2)Cn1cnc2ccccc21` (stereo not given) [SMR000082144], greater than 85 µM. The same measure, in the same setting: to `O=C(CN(Cc1ccco1)C(=O)CCC(=O)Nc1nccs1)NCc1ccccc1` [SMR000117995] belongs greater than 85 µM; to `O=C1OCC2OC(O)C(O)C(O)C2OC(=O)c2cc(O)c(O)c(O)c2-c2c(O)c(O)c3oc(=O)c4c(c(O)c(O)c5oc(=O)c2c3c54)-c2c1cc(O)c(O)c2O` (stereo not given) [SMR000445568], 0.176 µM. As for `CCOC(=O)c1c(NS(C)(=O)=O)sc2c1CCC(C)C2` (stereo not given) [ethyl 2-(methanesulfonamido)-6-methyl-4,5,6,7-tetrahydro-1-benzothiophene-3-carboxylate], the IC50 was greater than 85 µM. Same read-out and setting: as for `COC(=O)C(C=Nc1cccc(Cl)c1C)c1ncc(C(F)(F)F)cc1Cl` (stereo not given) [methyl (Z)-3-(3-chloro-2-methylanilino)-2-[3-chloro-5-(trifluoromethyl)-2-pyridinyl]-2-propenoate], the figure is greater than 85 µM. Regarding `COC(=O)COc1ccc(S(=O)(=O)NCCC2=CCCCC2)cc1C` [methyl [4-({[2-(1-cyclohexen-1-yl)ethyl]amino}sulfonyl)-2-methylphenoxy]acetate], the IC50 was greater than 85 µM.

The same assay, now with this note: inactive by the depositor's call.
Turning to `O=P(OCC(F)(F)C(F)F)(N1CCOCC1)N1CCOCC1` [4-[morpholin-4-yl(2,2,3,3-tetrafluoropropoxy)phosphoryl]morpholine], the IC50 is 42.5 µM. Regarding `COC(=O)c1cc2n(n1)CCN(Cc1ccc(F)cc1)C2=O` [5-(4-fluorobenzyl)-4-keto-6,7-dihydropyrazolo[1,5-a]pyrazine-2-carboxylic acid methyl ester], the IC50 worked out at 42.5 µM.

In the case of `CCOC(=O)CN1C(=O)N[C@@H](CCc2ccccc2)[C@@H](C(=O)OC)[C@H]1C` [CMLD004122], the IC50 stood at 42.5 µM.

Turning to `O=C(NC1CCCCC1)c1cc([N+](=O)[O-])ccc1N1CCCCC1` [Glucosamine derivative, 8], the IC50 was found to be 42.5 µM. As for `Cc1ccc(/C(C#N)=C\c2cn(C)c3ccccc23)cc1` [MLS000051428], the 50% inhibitory concentration (IC50) was 42.5 µM. On the same count and under the same terms, to `O=C(CN1C(=O)C2CC=CCC2C1=O)Nc1nccs1` (stereo not given) [MLS000054855] belongs 42.5 µM; to `CC(=O)Nn1c(-c2ccccc2)cc2ccccc21` [MLS000082684], 42.5 µM; to `COC(=O)CCC(=O)OC1(C)C(=O)C2=CN(C3CC3)C(c3ccc(OC)cc3)=CC2=C(Br)C1=O` (stereo not given) [MLS000438679], 42.5 µM. Same read-out and setting: to `O=C(CN1C(=O)c2ccccc2S1(=O)=O)Nc1ccc(S(=O)(=O)N2CCCCC2)cc1` [SMR000074755] belongs 42.5 µM; to `CC1(C)CC(=O)C=C(NNC(=O)c2ccccc2O)C1` [SMR000185773], 42.5 µM; to `COC(=O)c1nc(N)sc1-c1ccccc1` [methyl 2-azanyl-5-phenyl-1,3-thiazole-4-carboxylate], 42.5 µM.

The values are drawn from BindingDB's records for doi:10.7270/Q2BV7F1T (Pcmd, 2008).
